Data on 43 molecules can be found in patent publication US10266526B2, “Substituted 1,2,3-triazoles as SMYD inhibitors for treating cancer” (EPIZYME, INC., priority 2014, dated 2019).

For this experiment, the target named is SMYD3 (Homo sapiens (Human), UniProt Q9H7B4). The experiment is described as follows: SMYD3 biochemical assay (SMYD3 enzyme assay on MEKK2 protein substrate, 3H-SAM scintillation proximity assay). Particulars: read-out: SMYD3 Biochem IC50. In short, it runs like this:
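Native full-length human SMYD3, expressed in E. coli, was preincubated with compound for 30 min at room temperature in 25 mM Tris-Cl pH 8.0, 1 mM TCEP, 0.005% BSG and 0.005% Tween 20. ³H-SAM plus GST-MEKK2 then started the reaction. It was stopped with unlabeled SAM (100 uM final), and methylated MEKK2 was read by SPA.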
(SPA uses beads or plates that emit light when radiolabelled molecules are held near them.)

Sequence of SMYD3 (Q9H7B4 whole entry): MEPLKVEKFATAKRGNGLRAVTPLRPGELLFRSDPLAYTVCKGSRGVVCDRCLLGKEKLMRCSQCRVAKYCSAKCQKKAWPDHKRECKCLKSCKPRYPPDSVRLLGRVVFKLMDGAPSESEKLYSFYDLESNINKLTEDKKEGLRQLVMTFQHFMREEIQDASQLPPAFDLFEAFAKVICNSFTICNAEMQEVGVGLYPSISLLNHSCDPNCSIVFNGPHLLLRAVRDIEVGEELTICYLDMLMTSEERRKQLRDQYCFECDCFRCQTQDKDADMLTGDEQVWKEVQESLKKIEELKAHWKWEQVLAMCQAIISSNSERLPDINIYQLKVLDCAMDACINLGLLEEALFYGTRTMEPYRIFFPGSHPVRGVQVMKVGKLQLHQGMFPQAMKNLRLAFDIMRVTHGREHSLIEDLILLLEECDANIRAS

As for `Cc1cncc(C(=O)NC(C)C2CCN(C(=O)[C@H](C)N)CC2)c1` (stereo partly drawn) [compound 256, N-(1-(1-(L-alanyl)piperidin-4-yl)ethyl)-5-methylnicotinamide], the IC50 is 61.6 µM.

As for `Cc1ccc(C(=O)NC(C)C2CCN(C(=O)[C@H](C)N)CC2)cn1` (stereo partly drawn) [compound 257, N-(1-(1-(L-alanyl)piperidin-4-yl)ethyl)-6-methylnicotinamide], the IC50 was greater than 100 µM.

With `Cc1nscc1C(=O)NC(C)C1CCN(C(=O)[C@H](C)N)CC1` (stereo partly drawn) [compound 258, N-(1-(1-(L-alanyl)piperidin-4-yl)ethyl)-3-methylisothiazole-4-carboxamide], the IC50 is greater than 100 µM.

For the molecule `CC(NC(=O)c1ccn(C)n1)C1CCN(C(=O)[C@H](C)N)CC1` (stereo partly drawn) [compound 259, N-(1-(1-(L-alanyl)piperidin-4-yl)ethyl)-1-methyl-1H-pyrazole-3-carboxamide], the half-inhibitory concentration (IC50) is greater than 100 µM.

Turning to `CC(NC(=O)c1cc(C(C)(C)C)nn1C)C1CCN(C(=O)[C@H](C)N)CC1` (stereo partly drawn) [compound 260, N-(1-(1-(L-alanyl)piperidin-4-yl)ethyl)-3-(tert-butyl)-1-methyl-1H-pyrazole-5-carboxamide], the IC50 is greater than 100 µM.

For the molecule `COc1cncc(C(=O)NC(C)C2CCN(C(=O)[C@H](C)N)CC2)n1` (stereo partly drawn) [compound 261, N-(1-(1-(L-alanyl)piperidin-4-yl)ethyl)-6-methoxypyrazine-2-carboxamide], the IC50 was greater than 100 µM.

Take `CC(NC(=O)[C@H]1CC[C@H](N)CC1)C1CCN(C(=O)[C@H](C)N)CC1` (stereo partly drawn) [compound 262, (1r,4S)-N-(1-(1-(L-alanyl)piperidin-4-yl)ethyl)-4-aminocyclohexane-1-carboxamide]: the IC50 was greater than 100 µM.

In the case of `CC(NC(=O)c1ccc(Cl)cc1C(F)(F)F)C1CCN(C(=O)[C@H](C)N)CC1` (stereo partly drawn) [compound 263, N-(1-(1-(L-alanyl)piperidin-4-yl)ethyl)-4-chloro-2-(trifluoromethyl)benzamide], the half-maximal inhibitory concentration (IC50) is greater than 100 µM.

For the molecule `NCCC(=O)N[C@H]1CC[C@H](NC(=O)c2cc[n+]([O-])cc2)CC1` [compound 264, 4-(((1r,4r)-4-(3-aminopropanamido)cyclohexyl)carbamoyl)pyridine 1-oxide], the IC50 was greater than 100 µM.

`CC(NC(=O)c1cccc(F)n1)C1CCN(C(=O)[C@H](C)N)CC1` (stereo partly drawn) [compound 265, N-(1-(1-(L-alanyl)piperidin-4-yl)ethyl)-6-fluoropicolinamide]: the 50% inhibitory concentration (IC50) was greater than 100 µM.

For `CC(NC(=O)c1cccc2c1OC(F)(F)O2)C1CCN(C(=O)[C@H](C)N)CC1` (stereo partly drawn) [compound 266, N-(1-(1-(L-alanyl)piperidin-4-yl)ethyl)-2,2-difluorobenzo[d][1,3]dioxole-4-carboxamide], the IC50 is greater than 100 µM.

On to `CC(NC(=O)c1ccncc1F)C1CCN(C(=O)[C@H](C)N)CC1` (stereo partly drawn) [compound 267, N-(1-(1-(L-alanyl)piperidin-4-yl)ethyl)-3-fluoroisonicotinamide], for which the IC50 is greater than 100 µM.

With `CC(NC(=O)c1c[nH]c2ccccc12)C1CCN(C(=O)[C@H](C)N)CC1` (stereo partly drawn) [compound 268, N-(1-(1-(L-alanyl)piperidin-4-yl)ethyl)-1H-indole-3-carboxamide], the IC50 is greater than 100 µM.

Regarding `N[C@H]1CC[C@H](NC(=O)c2ncccn2)CC1` [compound 269, N-((1r,4r)-4-aminocyclohexyl)pyrimidine-2-carboxamide], the half-maximal inhibitory concentration (IC50) was greater than 100 µM.

Turning to `NCCC(=O)N[C@H]1CC[C@H](NC(=O)c2ccc(O)nn2)CC1` [compound 270], the IC50 was greater than 100 µM.

As for `N[C@H]1CC[C@H](NC(=O)c2ccc(O)nn2)CC1` [compound 271, N-((1r,4r)-4-aminocyclohexyl)-6-hydroxypyridazine-3-carboxamide], the IC50 was greater than 100 µM.

On to `NCCC(=O)N[C@H]1CC[C@H](NC(=O)c2ccc3cc[nH]c3c2)CC1` [compound 272, N-((1r,4r)-4-(3-aminopropanamido)cyclohexyl)-1H-indole-6-carboxamide], for which the IC50 was 37.2 µM.

For `Cc1c(C(=O)N[C@H]2CC[C@H](N)CC2)nnn1-c1ccccc1` [compound 273, N-((1r,4r)-4-aminocyclohexyl)-5-methyl-1-phenyl-1H-1,2,3-triazole-4-carboxamide], the IC50 is greater than 100 µM.

As to `Cc1cc(C)c(C(=O)NC(C)C2CCN(C(=O)[C@H](C)N)CC2)c(=O)[nH]1` (stereo partly drawn) [compound 274, N-(1-(1-(L-alanyl)piperidin-4-yl)ethyl)-4,6-dimethyl-2-oxo-1,2-dihydropyridine-3-carboxamide], the IC50 was greater than 100 µM.

As to `Cn1ncc2ccc(C(=O)N[C@H]3CC[C@H](N)CC3)cc21` [compound 275, N-((1r,4r)-4-aminocyclohexyl)-1-methyl-1H-indazole-6-carboxamide], the IC50 was greater than 100 µM.

With `COc1ccc2cc(C(=O)N[C@H]3CC[C@H](N)CC3)ccc2c1` [compound 276, N-((1r,4r)-4-aminocyclohexyl)-6-methoxy-2-naphthamide], the IC50 is greater than 100 µM.

As to `N[C@H]1CC[C@H](NC(=O)c2cc(=O)c3ccccc3o2)CC1` [compound 277, N-((1r,4r)-4-aminocyclohexyl)-4-oxo-4H-chromene-2-carboxamide], the IC50 is greater than 100 µM.

With `N[C@H]1CC[C@H](NC(=O)c2ccc(-n3cnnc3)cc2)CC1` [compound 278, N-((1r,4r)-4-aminocyclohexyl)-4-(4H-1,2,4-triazol-4-yl)benzamide], the 50% inhibitory concentration (IC50) was greater than 100 µM.

Take `NCCC(=O)N[C@H]1CC[C@H](NC(=O)c2ccc(N3CCCC3)cc2)CC1` [compound 279, N-((1r,4r)-4-(3-aminopropanamido)cyclohexyl)-4-(pyrrolidin-1-yl)benzamide]: the IC50 turned out to be 43.6 µM.

For `N[C@H]1CC[C@H](NC(=O)c2ccc(N3CCCC3)cc2)CC1` [compound 280, N-((1r,4r)-4-aminocyclohexyl)-4-(pyrrolidin-1-yl)benzamide], the IC50 is 48 µM.

Regarding `NCCC(=O)N[C@H]1CC[C@H](NC(=O)c2ccc3ncsc3c2)CC1` [compound 281, N-((1r,4r)-4-(3-aminopropanamido)cyclohexyl)benzo[d]thiazole-6-carboxamide], the IC50 came to 29 µM.

On to `CC(NC(=O)c1ccc2[nH]ccc2c1)C1CCN(C(=O)[C@H](C)N)CC1` (stereo partly drawn) [compound 283, N-(1-(1-(L-alanyl)piperidin-4-yl)ethyl)-1H-indole-5-carboxamide], for which the IC50 was greater than 100 µM.

Take `CC(NC(=O)c1ccc2c(c1)OC(F)(F)O2)C1CCN(C(=O)[C@H](C)N)CC1` (stereo partly drawn) [compound 284, N-(1-(1-(L-alanyl)piperidin-4-yl)ethyl)-2,2-difluorobenzo[d][1,3]dioxole-5-carboxamide]: the IC50 is greater than 100 µM.

Consider `N[C@H]1CC[C@H](NC(=O)c2ccc3c(c2)OC(F)(F)O3)CC1` [compound 285, N-((1r,4r)-4-aminocyclohexyl)-2,2-difluorobenzo[d][1,3]dioxole-5-carboxamide], for which the IC50 amounted to 69.1 µM.

For `N[C@H]1CC[C@H](NC(=O)c2ccc3c(c2)no[n+]3[O-])CC1` [compound 286, 5-(((1r,4r)-4-aminocyclohexyl)carbamoyl)benzo[c][1,2,5]oxadiazole 1-oxide], the concentration for half-maximal inhibition (IC50) is greater than 100 µM.

For `N[C@H]1CC[C@H](NC(=O)c2ccc3nonc3c2)CC1` [compound 287, N-((1r,4r)-4-aminocyclohexyl)benzo[c][1,2,5]oxadiazole-5-carboxamide], the half-maximal inhibitory concentration (IC50) was greater than 100 µM.

In the case of `NCCC(=O)N[C@H]1CC[C@H](NC(=O)c2cnccc2N)CC1` [compound 288, 4-amino-N-((1r,4r)-4-(3-aminopropanamido)cyclohexyl)nicotinamide], the IC50 was greater than 100 µM.

For the molecule `Nc1ccncc1C(=O)N[C@H]1CC[C@H](N)CC1` [compound 289, 4-amino-N-((1r,4r)-4-aminocyclohexyl)nicotinamide], the IC50 was greater than 100 µM.

With `NCCC(=O)N[C@H]1CC[C@H](NC(=O)c2cccc3[nH]ccc23)CC1` [compound 290, N-((1r,4r)-4-(3-aminopropanamido)cyclohexyl)-1H-indole-4-carboxamide], the IC50 is greater than 100 µM.

On to `N[C@H]1CC[C@H](NC(=O)c2cccc3[nH]ccc23)CC1` [compound 291, N-((1r,4r)-4-aminocyclohexyl)-1H-indole-4-carboxamide], for which the IC50 is greater than 100 µM.

As for `N[C@H]1CC[C@H](NC(=O)c2ccnc(O)c2)CC1` [compound 292, N-((1r,4r)-4-aminocyclohexyl)-2-hydroxyisonicotinamide], the IC50 is greater than 100 µM.

`NCCC(=O)N[C@H]1CC[C@H](NC(=O)c2ccc(O)nc2)CC1` [compound 294, N-((1r,4r)-4-(3-aminopropanamido)cyclohexyl)-6-hydroxynicotinamide]: the IC50 was greater than 100 µM.

Turning to `N[C@H]1CC[C@H](NC(=O)c2ccc(O)nc2)CC1` [compound 295, N-((1r,4r)-4-aminocyclohexyl)-6-hydroxynicotinamide], the IC50 was greater than 100 µM.

For the molecule `CC(NC(=O)c1ccccn1)C1CCN(C(=O)[C@H](C)N)CC1` (stereo partly drawn) [compound 296, N-(1-(1-(L-alanyl)piperidin-4-yl)ethyl)picolinamide], the IC50 is greater than 100 µM.

As for `NCCC(=O)NC1CCC(NC(=O)c2ccccn2)CC1` (stereo not shown) [compound 297, N-(4-(3-aminopropanamido)cyclohexyl)picolinamide], the IC50 amounted to 44.2 µM.

`N[C@H]1CC[C@H](NC(=O)c2cnccn2)CC1` [compound 298, N-((1r,4r)-4-aminocyclohexyl)pyrazine-2-carboxamide]: the IC50 was greater than 100 µM.

Regarding `Cc1cccc(Cn2nc(C(C)(C)C)cc2C(=O)NC(C)C2CCN(C(=O)[C@H](C)N)CC2)c1` (stereo partly drawn) [compound 299, N-(1-(1-(L-alanyl)piperidin-4-yl)ethyl)-3-(tert-butyl)-1-(3-methylbenzyl)-1H-pyrazole-5-carboxamide], the IC50 is greater than 100 µM.

For `Cc1cccc2cc(C(=O)NC(C)C3CCN(C(=O)[C@H](C)N)CC3)[nH]c12` (stereo partly drawn) [compound 300, N-(1-(1-(L-alanyl)piperidin-4-yl)ethyl)-7-methyl-1H-indole-2-carboxamide], the IC50 is greater than 100 µM.

Usually IC50 stands for the concentration needed to halve the response being measured.
